Assay results reported in patent publication US12679843B2, “Pyrrolopyrimidine amines as complement inhibitors” (BioCryst Pharmaceuticals, Inc., priority 2020, dated 2026).

target: Factor D (Homo sapiens, UniProt P00746); assay: Factor D esterolytic assay (Z-Lys-SBzl thioester substrate, DTNB, 405 nm); assay type: biochemical; conditions: substrate Z-Lys-SBzl 1.29 mM, 100 mM HEPES, 500 mM NaCl, pH 7.5, 10% DMSO, tested a minimum of three times
Summary of the method: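 Human Factor D hydrolysis of Z-Lys-SBzl (1.29 mM) monitored at 405 nm via DTNB thiol detection for 600 s, 690 nm background subtracted. Buffer 100 mM HEPES, 500 mM NaCl, pH 7.5, 10% DMSO; substrate added immediately or after room-temperature preincubation. IC50 from percent inhibition of rate, at least three tests.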

Chain of Factor D (P00746 26-253): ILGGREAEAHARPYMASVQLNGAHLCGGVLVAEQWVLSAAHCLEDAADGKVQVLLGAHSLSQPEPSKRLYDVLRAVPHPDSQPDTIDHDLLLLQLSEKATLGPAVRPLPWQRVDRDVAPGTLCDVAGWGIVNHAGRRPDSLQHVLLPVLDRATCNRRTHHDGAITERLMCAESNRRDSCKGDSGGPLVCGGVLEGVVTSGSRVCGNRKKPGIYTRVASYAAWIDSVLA

Row | IC50 | SMILES
1 | < 100 nM | Nc1ncnc2c1ccn2CC(=O)N1C[C@H](F)C[C@H]1C(=O)NCc1cccc(Cl)c1F [Compound 64a, (2S,4R)-1-(2-(4-amino-7H-pyrrolo[2,3-d]pyrimidin-7-yl)acetyl)-N-(3-chloro-2-fluorobenzyl)-4-fluoropyrrolidine-2-carboxamide]
2 | < 100 nM | Nc1ncnn2c(CC(=O)N3C[C@H](F)C[C@H]3C(=O)NCc3cccc(Cl)c3F)ccc12 [Compound 65a, (2S,4R)-1-(2-(4-aminopyrrolo[2,1-f][1,2,4]triazin-7-yl)acetyl)-N-(3-chloro-2-fluorobenzyl)-4-fluoropyrrolidine-2-carboxamide]
3 | 100 to 1000 nM | Nc1ncnn2c(CC(=O)N3[C@@H]4C[C@@H]4C[C@H]3C(=O)NCc3cccc(Cl)c3F)ccc12 [Compound 66b, (1R,3S,5R)-2-(2-(4-aminopyrrolo[2,1-f][1,2,4]triazin-7-yl)acetyl)-N-(3-chloro-2-fluorobenzyl)-2-azabicyclo[3.1.0]hexane-3-carboxamide]
4 | 100 to 1000 nM | C[C@@]12C[C@@H](C(=O)NCc3cccc(Cl)c3F)N(C(=O)Cn3cnc4c(N)ncnc43)[C@@H]1C2 [Compound 67c, (1R,3S,5R)-2-(2-(6-amino-9H-purin-9-yl)acetyl)-N-(3-chloro-2-fluorobenzyl)-5-methyl-2-azabicyclo[3.1.0]hexane-3-carboxamide]
5 | 100 to 1000 nM | Cc1ccc(Br)nc1NC(=O)[C@@H]1C[C@@H](F)CN1C(=O)Cn1cnc2c(N)ncnc21 [Compound 68a, (2S,4R)-1-(2-(6-amino-9H-purin-9-yl)acetyl)-N-(6-bromo-3-methylpyridin-2-yl)-4-fluoropyrrolidine-2-carboxamide]
6 | 100 to 1000 nM | Nc1ncnn2c(CC(=O)N3C[C@H](F)C[C@H]3C(=O)Nc3cccc(Br)n3)ccc12 [Compound 69a, (2S,4R)-1-(2-(4-aminopyrrolo[2,1-f][1,2,4]triazin-7-yl)acetyl)-N-(6-bromopyridin-2-yl)-4-fluoropyrrolidine-2-carboxamide]
7 | 100 to 1000 nM | Nc1ncnn2c(CC(=O)N3[C@@H]4C[C@@H]4C[C@H]3C(=O)Nc3cccc(Br)n3)ccc12 [Compound 70a, (1R,3S,5R)-2-(2-(4-aminopyrrolo[2,1-f][1,2,4]triazin-7-yl)acetyl)-N-(6-bromopyridin-2-yl)-2-azabicyclo[3.1.0]hexane-3-carboxamide]
8 | 100 to 1000 nM | C[C@@]12C[C@@H](C(=O)Nc3cccc(Br)n3)N(C(=O)Cc3ccc4c(N)ncnn34)[C@@H]1C2 [Compound 71a, (1R,3S,5R)-2-(2-(4-aminopyrrolo[2,1-f][1,2,4]triazin-7-yl)acetyl)-N-(6-bromopyridin-2-yl)-5-methyl-2-azabicyclo[3.1.0]hexane-3-carboxamide]
9 | 100 to 1000 nM | Cc1ccc(Br)nc1NC(=O)[C@@H]1C[C@@]2(C)C[C@H]2N1C(=O)Cc1ccc2c(N)ncnn12 [Compound 72a, (1R,3S,5R)-2-(2-(4-aminopyrrolo[2,1-f][1,2,4]triazin-7-yl)acetyl)-N-(6-bromo-3-methylpyridin-2-yl)-5-methyl-2-azabicyclo[3.1.0]hexane-3-carboxamide]
10 | < 100 nM | C[C@@]12C[C@@H](C(=O)Nc3cccc(Br)n3)N(C(=O)Cn3ccc4c(N)ncnc43)[C@@H]1C2 [Compound 73a, (1R,3S,5R)-2-(2-(4-amino-7H-pyrrolo[2,3-d]pyrimidin-7-yl)acetyl)-N-(6-bromopyridin-2-yl)-5-methyl-2-azabicyclo[3.1.0]hexane-3-carboxamide]
11 | 100 to 1000 nM | Cc1ccc(Br)nc1NC(=O)[C@@H]1C[C@@]2(C)C[C@H]2N1C(=O)Cn1ccc2c(N)ncnc21 [Compound 74a, (1R,3S,5R)-2-(2-(4-amino-7H-pyrrolo[2,3-d]pyrimidin-7-yl)acetyl)-N-(6-bromo-3-methylpyridin-2-yl)-5-methyl-2-azabicyclo[3.1.0]hexane-3-carboxamide]
12 | > 1000 nM | CNc1ncnc2c1cnn2CC(=O)N1CCC[C@H]1C(=O)Nc1cccc(Br)n1 [Compound 75d, (S)—N-(6-bromopyridin-2-yl)-1-(2-(4-(methylamino)-1H-pyrazolo[3,4-d]pyrimidin-1-yl)acetyl)pyrrolidine-2-carboxamide]
13 | > 1000 nM | CNc1ncnc2c1cnn2CC(=O)N1CCC[C@H]1C(=O)NCc1cccc(Cl)c1F [Compound 76b, (S)—N-(3-chloro-2-fluorobenzyl)-1-(2-(4-(methylamino)-1H-pyrazolo[3,4-d]pyrimidin-1-yl)acetyl)pyrrolidine-2-carboxamide]
14 | > 1000 nM | Nc1ncnc2c1cnn2CC(=O)N1CCC[C@H]1C(=O)Nc1cccc(Br)n1 [Compound 77b, (S)-1-(2-(4-amino-1H-pyrazolo[3,4-d]pyrimidin-1-yl)acetyl)-N-(6-bromopyridin-2-yl)pyrrolidine-2-carboxamide]
15 | 100 to 1000 nM | Nc1ncnc2c1cnn2CC(=O)N1CCC[C@H]1C(=O)NCc1cccc(Cl)c1F [Compound 78a, (S)-1-(2-(4-amino-1H-pyrazolo[3,4-d]pyrimidin-1-yl)acetyl)-N-(3-chloro-2-fluorobenzyl)pyrrolidine-2-carboxamide]
16 | 100 to 1000 nM | Nc1ncnc2c1cnn2CC(=O)N1[C@@H]2C[C@@H]2C[C@H]1C(=O)Nc1cccc(Br)n1 [Compound 79a, (1R,3S,5R)-2-(2-(4-amino-1H-pyrazolo[3,4-d]pyrimidin-1-yl)acetyl)-N-(6-bromopyridin-2-yl)-2-azabicyclo[3.1.0]hexane-3-carboxamide]
17 | < 100 nM | Nc1ncnc2c1ccn2CC(=O)N1[C@@H]2C[C@@H]2C[C@H]1C(=O)Nc1cccc(Br)n1 [Compound 80a, (1R,3S,5R)-2-(2-(4-amino-7H-pyrrolo[2,3-d]pyrimidin-7-yl)acetyl)-N-(6-bromopyridin-2-yl)-2-azabicyclo[3.1.0]hexane-3-carboxamide]
18 | < 100 nM | Nc1ncnc2c1ccn2CC(=O)N1[C@@H]2C[C@@H]2C[C@H]1C(=O)NCc1cccc(Cl)c1F [Compound 81a, (1R,3S,5R)-2-(2-(4-amino-7H-pyrrolo[2,3-d]pyrimidin-7-yl)acetyl)-N-(3-chloro-2-fluorobenzyl)-2-azabicyclo[3.1.0]hexane-3-carboxamide]
19 | > 1000 nM | CNc1ncnc2c1cnn2CC(=O)N1[C@@H]2C[C@@H]2C[C@H]1C(=O)Nc1cccc(Br)n1 [Compound 82a, (1R,3S,5R)—N-(6-bromopyridin-2-yl)-2-(2-(4-(methylamino)-1H-pyrazolo[3,4-d]pyrimidin-1-yl)acetyl)-2-azabicyclo[3.1.0]hexane-3-carboxamide]
20 | 100 to 1000 nM | Nc1ccnc2c1ccn2CC(=O)N1[C@@H]2C[C@@H]2C[C@H]1C(=O)Nc1cccc(Br)n1 [Compound 83d, (1R,3S,5R)-2-(2-(4-amino-1H-pyrrolo[2,3-b]pyridin-1-yl)acetyl)-N-(6-bromopyridin-2-yl)-2-azabicyclo[3.1.0]hexane-3-carboxamide]
21 | 100 to 1000 nM | Nc1ncnc2c1ncn2CC(=O)N1[C@@H]2C[C@@H]2C[C@H]1C(=O)Nc1cccc(Br)n1 [Compound 84a, (1R,3S,5R)-2-(2-(6-amino-9H-purin-9-yl)acetyl)-N-(6-bromopyridin-2-yl)-2-azabicyclo[3.1.0]hexane-3-carboxamide]
22 | > 1000 nM | Nc1cccc2c1ccn2CC(=O)N1[C@@H]2C[C@@H]2C[C@H]1C(=O)Nc1cccc(Br)n1 [Compound 85b, (1R,3S,5R)-2-(2-(4-amino-1H-indol-1-yl)acetyl)-N-(6-bromopyridin-2-yl)-2-azabicyclo[3.1.0]hexane-3-carboxamide]
23 | 100 to 1000 nM | C[C@H](NC(=O)[C@@H]1C[C@H]2C[C@H]2N1C(=O)Cn1ccc2c(N)ncnc21)c1cccc(Cl)c1F [Compound 86b, (1R,3S,5R)-2-(2-(4-amino-7H-pyrrolo[2,3-d]pyrimidin-7-yl)acetyl)-N—((S)-1-(3-chloro-2-fluorophenyl)ethyl)-2-azabicyclo[3.1.0]hexane-3-carboxamide]
24 | > 1000 nM | Nc1nc(N)c2ccn(CC(=O)N3[C@@H]4C[C@@H]4C[C@H]3C(=O)Nc3cccc(Br)n3)c2n1 [Compound 87f, (1R,3S,5R)—N-(6-bromopyridin-2-yl)-2-(2-(2,4-diamino-7H-pyrrolo[2,3-d]pyrimidin-7-yl)acetyl)-2-azabicyclo[3.1.0]hexane-3-carboxamide]
25 | > 1000 nM | Nc1nccc2c1ccn2CC(=O)N1[C@@H]2C[C@@H]2C[C@H]1C(=O)NCc1cccc(Cl)c1F [Compound 88f, (1R,3S,5R)-2-(2-(4-amino-1H-pyrrolo[3,2-c]pyridin-1-yl)acetyl)-N-(3-chloro-2-fluorobenzyl)-2-azabicyclo[3.1.0]hexane-3-carboxamide]
26 | 100 to 1000 nM | Nc1ncc2ncn(CC(=O)N3[C@@H]4C[C@@H]4C[C@H]3C(=O)Nc3cccc(Br)n3)c2n1 [Compound 89b, (1R,3S,5R)-2-(2-(2-amino-9H-purin-9-yl)acetyl)-N-(6-bromopyridin-2-yl)-2-azabicyclo[3.1.0]hexane-3-carboxamide]
27 | > 1000 nM | Nc1nc(Cl)nc2c1ccn2CC(=O)N1[C@@H]2C[C@@H]2C[C@H]1C(=O)Nc1cccc(Br)n1 [Compound 90d, (1R,3S,5R)-2-(2-(4-amino-2-chloro-7H-pyrrolo[2,3-d]pyrimidin-7-yl)acetyl)-N-(6-bromopyridin-2-yl)-2-azabicyclo[3.1.0]hexane-3-carboxamide]
28 | < 100 nM | Nc1ncnc2c1ncn2CC(=O)N1[C@@H]2C[C@@H]2C[C@H]1C(=O)NCc1cccc(Cl)c1F [Compound 91a, (1R,3S,5R)-2-(2-(6-amino-9H-purin-9-yl)acetyl)-N-(3-chloro-2-fluorobenzyl)-2-azabicyclo[3.1.0]hexane-3-carboxamide]
29 | > 1000 nM | Nc1nc(N)c2ncn(CC(=O)N3[C@@H]4C[C@@H]4C[C@H]3C(=O)Nc3cccc(Br)n3)c2n1 [Compound 92b, (1R,3S,5R)—N-(6-bromopyridin-2-yl)-2-(2-(2,6-diamino-9H-purin-9-yl)acetyl)-2-azabicyclo[3.1.0]hexane-3-carboxamide]
30 | 100 to 1000 nM | Nc1ncnc2c1ncn2CC(=O)N1C[C@H](F)C[C@H]1C(=O)Nc1cccc(Br)n1 [Compound 93a, (2S,4R)-1-(2-(6-amino-9H-purin-9-yl)acetyl)-N-(6-bromopyridin-2-yl)-4-fluoropyrrolidine-2-carboxamide]
